Results as given in patent publication US20250134869A1, “Pyrrolo[2,3-d]pyrimidinyl, Pyrrolo[2,3-b]pyrazinyl and Pyrrolo[2,3-d]pyridinyl Acryla-mides” (Pfizer Inc, priority 2021, published 2025).
Where two headings read alike, the source gives them in different places.

Experiments:
[1] = target: JAK3 enzyme (Homo sapiens (Human), UniProt P52333); assay: JAK Caliper Enzyme Assay at 4 μM or 1 mM ATP; type: biochemical
[2] = test system: IL-15 induced P-STAT5 in human PBMC; assay: PBMC IL-15 induced P-STAT5; type: cell-based; details: human PBMC, IL-15 stimulated, read-out: PBMC IL15-pSTAT5 IC50
Description: PBMC IL-15 Induced P-STAT5
Frozen human PBMC (200-250 million cells/vial) was thawed at 37° C. The cells were transferred to 10 mL warm medium in a 50-mL conical tube, and centrifuged at 1,200 RPM at room temperature for 5 min. The supernatant was aspirated. […] After adding 47 ml D-PBS (37° C.) to PBMC/FBS suspension, centrifuging at 1,200 RPM at room temperature for 5 min, and aspirating the supernatant, the cells were resuspended in 20 mL warm RPMI medium. Ninety μL of cell suspension were pipetted per well in a 96-well, deep-well, V-bottom plate, and the plate was incubated at 37° C. for 30 min. […] After adding 0.8 mL staining buffer per well, the plates were centrifuged at 1,200 RPM (Beckman GS-6R or Sorvall Legend) at room temperature for 5 min, and again the supernatant was aspirated using a 8-channel or 12-channel manifold. The plate was vortexed, and 0.35 mL 90% methanol/10% H2O (−20° C.) was added per well, and the plate incubated on ice for 20 min. After again adding 0.8 mL staining buffer per well, the plates were centrifuged at 1,200 RPM (Beckman GS-6R or Sorvall Legend) at room temperature for 5 min, and again the supernatant was aspirated using a 8-channel or 12-channel manifold, and then 0.8 mL Staining buffer was added per well. After once again adding 0.8 mL staining buffer per well, the plates were centrifuged at 1,200 RPM (Beckman GS-6R or Sorvall Legend) at room temperature for 5 min, and again the supernatant was aspirated using a 8-channel or 12-channel manifold. […] Samples of 250 μL/well were transferred to a 96-well U-bottom plate, and the FACS analysis was performed gating on total lymphocytes. Samples were analyzed using a BD Calibur™ or BD FACSCanto™ flow cytometer equipped with the BD High Throughput Sampler.

[3] = test system: IL-15 induced STAT5 phosphorylation in human whole blood lymphocytes; assay: HWB IL-15 induced STAT5 phosphorylation assay; type: cell-based; details: Lymphocyte, IL-15 stimulated, read-out: HWB-IL15-pSTAT5 IC50
Description: HWB IL-15 Induced STAT5 Phosphorylation Assay
After mixing and incubating for 45 minutes at 37° C., 5 μl D-PBS (unstimulated control) or 20× stocks of 5 μl human IL-15 (final concentration is 50 ng/ml) were added, and mixed three times. After incubating 15 minutes at 37° C., 1× Lyse/Fix Buffer (BD Phosflow 5× Lyse/Fix Buffer) was added to all wells at 1000 μl/well, then incubated for 20 minutes at 37° C. and spun 5 mins at 1200 rpm. […] Following incubating at 4° C. over night, all the samples were transferred to 96-well polypropylene U-bottom plate, and checked by flow cytometry gated on total lymphocytes.

[4] = read-out: JAK3 (4 μM ATP) IC50, 4 μM ATP
[5] = read-out: JAK3 (1 mM ATP) IC50, 1 mM ATP

Sequence of JAK3 enzyme (P52333 whole entry, species assumed): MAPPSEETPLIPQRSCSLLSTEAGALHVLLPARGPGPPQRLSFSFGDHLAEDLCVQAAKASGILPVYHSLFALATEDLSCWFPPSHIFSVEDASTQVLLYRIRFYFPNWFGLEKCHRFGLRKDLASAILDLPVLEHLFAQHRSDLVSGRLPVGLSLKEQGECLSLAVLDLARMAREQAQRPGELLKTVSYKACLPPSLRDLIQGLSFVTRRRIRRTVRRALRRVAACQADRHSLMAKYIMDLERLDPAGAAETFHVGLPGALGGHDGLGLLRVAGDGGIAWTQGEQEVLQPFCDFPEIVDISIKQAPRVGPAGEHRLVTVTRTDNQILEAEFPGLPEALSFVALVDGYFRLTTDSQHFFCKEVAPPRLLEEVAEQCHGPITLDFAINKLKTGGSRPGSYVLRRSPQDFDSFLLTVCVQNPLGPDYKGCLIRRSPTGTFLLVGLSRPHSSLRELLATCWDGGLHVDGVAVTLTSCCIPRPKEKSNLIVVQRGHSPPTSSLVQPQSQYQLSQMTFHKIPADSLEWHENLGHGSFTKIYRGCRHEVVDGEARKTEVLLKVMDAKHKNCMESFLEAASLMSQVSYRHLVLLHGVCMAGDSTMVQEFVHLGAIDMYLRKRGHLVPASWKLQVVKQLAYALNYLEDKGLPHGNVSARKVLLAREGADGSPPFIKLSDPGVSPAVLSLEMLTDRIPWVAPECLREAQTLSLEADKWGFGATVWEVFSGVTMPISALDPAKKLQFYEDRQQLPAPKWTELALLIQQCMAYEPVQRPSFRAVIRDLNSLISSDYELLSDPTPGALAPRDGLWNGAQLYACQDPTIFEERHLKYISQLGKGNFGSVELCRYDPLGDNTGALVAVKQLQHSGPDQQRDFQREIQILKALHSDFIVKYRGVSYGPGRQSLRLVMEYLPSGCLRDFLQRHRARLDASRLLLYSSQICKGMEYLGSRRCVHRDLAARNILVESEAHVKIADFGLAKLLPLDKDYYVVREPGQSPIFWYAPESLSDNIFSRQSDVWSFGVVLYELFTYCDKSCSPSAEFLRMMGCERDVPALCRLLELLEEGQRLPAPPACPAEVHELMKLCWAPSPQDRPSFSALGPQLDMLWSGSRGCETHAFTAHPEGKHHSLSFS

**Q.** For `C=CC(=O)N1CC[C@@H]2CCN(c3ncnc4[nH]cc(CCOC)c34)[C@@H]2C1` [Example 89, 1-{(3aS,7aS)-1-[5-(2-Methoxyethyl)-7H-pyrrolo[2,3-d]pyrimidin-4-yl]octahydro-6H-pyrrolo[2,3-c]pyridin-6-yl}prop-2-en-1-one], which IC50 [1, 4] is on record?
**A.** 0.0352 µM

**Q.** And the IC50 [1, 5]?
**A.** 3.94 µM

**Q.** What about the IC50 [2] of the same compound?
**A.** > 6.16 µM

**Q.** Which IC50 [1, 4] does the source give for `C=CC(=O)N1CCC(Oc2cnc3[nH]cc(-c4cncc(C#N)c4)c3n2)CC1` [Example 225, 5-{2-[(1-acryloylpiperidin-4-yl)oxy]-5H-pyrrolo[2,3-b]pyrazin-7-yl}pyridine-3-carbonitrile] here?
**A.** 0.0014 µM

**Q.** What about the IC50 [1, 5] of the same compound?
**A.** 0.12 µM

**Q.** What about the IC50 [2] of the same compound?
**A.** 2.91 µM

**Q.** With `C=CC(=O)N1CCC[C@@](C)(Nc2ncnc3[nH]ccc23)C1` [Example 72, (R)-1-(3-((7H-pyrrolo[2,3-d]pyrimidin-4-yl)amino)-3-methylpiperidin-1-yl)prop-2-en-1-one] as the compound, how does the IC50 ([2]; Homo sapiens, PBMC) read?
**A.** > 10 µM

**Q.** How did the IC50 [1, 4] turn out when `C=CC(=O)N1CCC[C@@H](Nc2ncnc3[nH]cc(-c4cnn(C)c4)c23)C1` [Example 28, 1-[(3R)-3-{[5-(1-methyl-1H-pyrazol-4-yl)-7H-pyrrolo[2,3-d]pyrimidin-4-yl]amino}piperidin-1-yl]prop-2-en-1-one] was run?
**A.** 0.0482 µM

**Q.** What about the IC50 [1, 5] of the same compound?
**A.** 0.358 µM

**Q.** What about the IC50 [2] of the same compound?
**A.** > 10 µM

**Q.** `C=C(CN(C)C)C(=O)N1CCC[C@@H](Nc2ncnc3[nH]ccc23)C1` [Example 92, 2-[(dimethylamino)methyl]-1-[(3R)-3-(7H-pyrrolo[2,3-d]pyrimidin-4-ylamino)piperidin-1-yl]prop-2-en-1-one] was tested. Which IC50 [2] did it give?
**A.** > 10 µM

**Q.** What does the source list for `CN(C)C/C=C/C(=O)N1CC[C@@H]2CCN(c3ncnc4[nH]ccc34)[C@@H]2C1` [Example 82, (2E)-4-(dimethylamino)-1-[(3aS,7aS)-1-(7H-pyrrolo[2,3-d]pyrimidin-4-yl)octahydro-6H-pyrrolo[2,3-c]pyrdin-6-yl]but-2-en-1-one]?
**A.** IC50 [1, 4]: 0.0572 µM; IC50 [1, 5]: 5.29 µM; IC50 [2]: > 7.3 µM

**Q.** For `C=CC(=O)N1CC[C@@H]2OCCN(c3ncnc4[nH]ccc34)[C@@H]2C1` [Example 90, 1-[(4aR,8aS)-4-(7H-Pyrrolo[2,3-d]pyrimidin-4-yl)hexahydro-2H-pyrido[4,3-b][1,4]oxazin-6 (5H)-yl]prop-2-en-1-one], which IC50 ([2]; Homo sapiens, PBMC) is on record?
**A.** > 10 µM

**Q.** `C=CC(=O)N1CC[C@H]2CCN(c3ncnc4[nH]ccc34)[C@H]2C1` [Example 76, 1-[(3aR,7aR)-1-(7H-Pyrrolo[2,3-d]pyrimidin-4-yl)octahydro-6H-pyrrolo[2,3-c]pyridin-6-yl]prop-2-en-1-one] was tested. Which IC50 [2] did it give?
**A.** > 6.08 µM

**Q.** `C=CC(=O)N1C[C@H](OC)C[C@@H](N(C)c2ncnc3[nH]ccc23)C1` [Example 78, 1-{(3R,5R)-3-Methoxy-5-[methyl(7H-pyrrolo[2,3-d]pyrimidin-4-yl)amino]piperidin-1-yl}prop-2-en-1-one] was tested. Which IC50 [1, 4] did it give?
**A.** 0.387 µM

**Q.** And the IC50 [1, 5]?
**A.** > 10 µM

**Q.** And the IC50 [2]?
**A.** > 10 µM

**Q.** Which IC50 [2] does the source give for `C=CC(=O)N1CC[C@H](O)[C@@H](Nc2ncnc3[nH]ccc23)C1` (racemic) [Example 113, rac-1-[(3S,4S)-4-Hydroxy-3-(7H-pyrrolo[2,3-d]pyrimidin-4-ylamino)piperidin-1-yl]prop-2-en-1-one] here?
**A.** > 10 µM

**Q.** For `C=CC(=O)N1C[C@H](C)C[C@@H](Nc2ncnc3[nH]ccc23)C1` (racemic) [Example 65, Rac-1-((3R,5R)-3-((7H-Pyrrolo[2,3-d]pyrimidin-4-yl)amino)-5-methylpiperidin-1-yl)prop-2-en-1-one], which IC50 [3] is on record?
**A.** > 10 µM

**Q.** `C=CC(=O)N1CCC(Nc2cnc3[nH]cc(C(=O)NCCCCCCCCC#N)c3n2)CC1` [Example 260, 2-[(1-acryloylpiperidin-4-yl)amino]-N-(8-cyanooctyl)-5H-pyrrolo[2,3-b]pyrazine-7-carboxamide] was tested. Which IC50 [3] did it give?
**A.** > 10 µM

**Q.** Which IC50 [2] does the source give for `C=CC(=O)N1CC(Nc2ncnc3[nH]ccc23)CCC1CO` (stereo not drawn) [Example 52, 1-[2-(Hydroxymethyl)-5-(7H-pyrrolo[2,3-d]pyrimidin-4-ylamino)piperidin-1-yl]prop-2-en-1-one] here?
**A.** > 0.354 µM

**Q.** Which IC50 [1, 4] does the source give for `C=CC(=O)N1CC[C@H](Nc2cnc3[nH]ccc3n2)C1` [Example 336, (S)-1-(3-((5H-Pyrrolo[2,3-b]pyrazin-2-yl)amino)pyrrolidin-1-yl)prop-2-en-1-one] here?
**A.** 0.0306 µM

**Q.** What about the IC50 [1, 5] of the same compound?
**A.** 3.4 µM

**Q.** And the IC50 [2]?
**A.** > 10 µM

**Q.** Which IC50 [1, 4] does the source give for `C=CC(=O)N1CC[C@]2(C)CCN(c3ncnc4[nH]ccc34)[C@@H]2C1` [Example 59, 1-((3aS,7aS)-3a-Methyl-1-(7H-pyrrolo[2,3-d]pyrimidin-4-yl)hexahydro-1H-pyrrolo[2,3-c]pyridin-6 (2H)-yl)prop-2-en-1-one] here?
**A.** 0.0032 µM

**Q.** And the IC50 [1, 5]?
**A.** 0.403 µM

**Q.** And the IC50 ([2]; Homo sapiens, PBMC)?
**A.** > 2.55 µM

**Q.** `C=CC(=O)N1CCCC(C)(Nc2ncnc3[nH]ccc23)C1` (stereo not drawn) [Example 71, 1-(3-((7H-Pyrrolo[2,3-d]pyrimidin-4-yl)amino)-3-methylpiperidin-1-yl)prop-2-en-1-one] was tested. Which IC50 ([2]; Homo sapiens, PBMC) did it give?
**A.** > 10 µM

**Q.** Which results are given for `C=C(CO)C(=O)N1CCC[C@@H](Nc2ncnc3[nH]ccc23)C1` [Example 93, 2-(hydroxymethyl)-1-[(3R)-3-(7H-pyrrolo[2,3-d]pyrimidin-4-ylamino)piperidin-1-yl]prop-2-en-1-one]?
**A.** IC50 [1, 4]: 0.703 µM; IC50 [1, 5]: > 10 µM; IC50 [2]: > 10 µM

**Q.** For `C=CC(=O)N1CCC(Nc2cnc3[nH]cc(C(=O)N[C@H]4CCC[C@H](CC#N)C4)c3n2)CC1` [Example 262, 2-[(1-acryloylpiperidin-4-yl)amino]-N-[(1S,3S)-3-(cyanomethyl)cyclohexyl]-5H-pyrrolo[2,3-b]pyrazine-7-carboxamide], which IC50 [3] is on record?
**A.** > 10 µM

**Q.** For `C=CC(=O)N1CC[C@@H](O)[C@@H](Nc2ncnc3[nH]ccc23)C1` (racemic) [Example 64, 1-[(3S,4R)-4-Hydroxy-3-(7H-pyrrolo[2,3-d]pyrimidin-4-ylamino)piperidin-1-yl]prop-2-en-1-one], which IC50 [1, 4] is on record?
**A.** 0.0053 µM

**Q.** What about the IC50 [1, 5] of the same compound?
**A.** 0.996 µM

**Q.** What about the IC50 [2] of the same compound?
**A.** 4.64 µM

**Q.** For `C=CC(=O)c1c[nH]c2ncnc(N[C@H]3CN(C(=O)C=C)CC[C@H]3F)c12` [Example 120, 1-(4-{[(3S,4R)-1-Acryloyl-4-fluoropiperidin-3-yl]amino}-7H-pyrrolo[2,3-d]pyrimidin-5-yl)prop-2-en-1-one], which IC50 [1, 4] is on record?
**A.** 0.692 µM

**Q.** What about the IC50 [1, 5] of the same compound?
**A.** > 0.01 µM

**Q.** And the IC50 [2]?
**A.** > 10 µM

**Q.** Which IC50 [2] does the source give for `C=CC(=O)N1CC[C@@H]2OCCN(c3ncnc4[nH]ccc34)[C@H]2C1` [Example 119, 1-[(4aS,8aS)-4-(7H-Pyrrolo[2,3-d]pyrimidin-4-yl)hexahydro-2H-pyrido[4,3-b][1,4]oxazin-6 (5H)-yl]prop-2-en-1-one] here?
**A.** > 10 µM

**Q.** For `C=CC(=O)N1CC[C@@H]2CCN(c3ncnc4[nH]ccc34)[C@H]2C1` [Example 49, 1-[(3aS,7aR)-1-(7H-Pyrrolo[2,3-d]pyrimidin-4-yl)octahydro-6H-pyrrolo[2,3-c]pyridin-6-yl]prop-2-en-1-one], which IC50 [2] is on record?
**A.** 0.355 µM

**Q.** For `C=CC(=O)N1CC[C@@H](Nc2cnc3[nH]ccc3n2)C1` [Example 335, (R)-1-(3-((5H-Pyrrolo[2,3-b]pyrazin-2-yl)amino)pyrrolidin-1-yl)prop-2-en-1-one], which IC50 [1, 4] is on record?
**A.** 0.622 µM

**Q.** What about the IC50 [2] of the same compound?
**A.** > 10 µM

**Q.** With `C=CC(=O)N1CCC[C@@H](Nc2ccnc3[nH]cc(C)c23)C1` [Example 47, 1-{(3R)-3-[(3-methyl-1H-pyrrolo[2,3-b]pyridin-4-yl)amino]piperidin-1-yl}prop-2-en-1-one] as the compound, how does the IC50 [1, 4] read?
**A.** 0.004 µM

**Q.** What about the IC50 [1, 5] of the same compound?
**A.** 0.608 µM

**Q.** And the IC50 [2]?
**A.** 1.08 µM

**Q.** Which results are given for `C=C(COC)C(=O)N1CCC[C@@H](Nc2ncnc3[nH]ccc23)C1` [Example 94, 2-(methoxymethyl)-1-[(3R)-3-(7H-pyrrolo[2,3-d]pyrimidin-4-ylamino)piperidin-1-yl]prop-2-en-1-one]?
**A.** IC50 [1, 4]: 0.801 µM; IC50 [1, 5]: > 10 µM; IC50 [2]: > 10 µM

**Q.** Which results are given for `C=CC(=O)N1CCC(Oc2cnc3[nH]cc(-c4ccc(F)nc4)c3n2)CC1` [Example 226, 1-(4-{[7-(6-fluoropyridin-3-yl)-5H-pyrrolo[2,3-b]pyrazin-2-yl]oxy}piperidin-1-yl)prop-2-en-1-one]?
**A.** IC50 [1, 4]: 0.001 µM; IC50 [1, 5]: 0.091 µM; IC50 [2]: 0.699 µM

**Q.** Which IC50 ([2]; Homo sapiens, PBMC) does the source give for `O=C(/C=C/C(F)(F)F)N1CC[C@@H]2CCN(c3ncnc4[nH]ccc34)[C@@H]2C1` [Example 81, (2E)-4,4,4-trifluoro-1-[(3aS,7aS)-1-(7H-pyrrolo[2,3-d]pyrimidin-4-yl)octahydro-6H-pyrrolo[2,3-c]pyridin-6-yl]but-2-en-1-one] here?
**A.** > 4 µM
